Data from patent US8629186B2, “Polymer micelles containing anthracyclines for the treatment of cancer” (Intezyne Technologies, Inc., priority 2009, dated 2014).
Like-named read-outs stand apart in the source and are kept apart here.

Tests used:
[1] = Pharmacokinetics of crosslinked DOX loaded micelles in mice (Example 29); conditions: athymic nude mice, 15 mg/kg fast IV bolus tail vein, plasma doxorubicin
Method: Athymic nude mice were injected with 15 mg/kg of either doxorubicin, crosslinked dox loaded micelles (IT-143, Example 24), or dox loaded micelles (Example 23) by a fast IV bolus into the tail vein with an injection volume of 0.2-0.4 mL. The delivery vehicle for drug administration was isotonic saline. Mouse blood was collected from mice into K2-EDTA tubes by heart puncture at time points of 5 minutes, 15 minutes, 1 hour, and 4 hours. Plasma was isolated by centrifugation at 1000 RPM for 5 minutes, and 150 uL of extraction solution (ice cold methanol/100 ng/mL daunorubicin internal standard) was added to 50 uL of each plasma sample. Samples are then vortexed for 10 minutes, centrifuged at 13,000 RPM for 10 minutes, and 150 uL of the supernatant is transferred to HPLC vials for analysis.
(§1) Samples were analyzed on a Waters Alliance 2695 equiped with a 2475 fluorescence detector (Ex=470 nm; Em=580). A 5 μL sample injection was made onto a Waters 4 μm Nova Pak C18 (3.9×150 mm) at 30° C. with a flow rate of 0.750 mL per minute of 10 mM phosphate buffer (pH=1.4), methanol and acetonitrile (gradient from 70/10/20 to 40/10/50 for buffer/methanol/acetonitrile was made over eight minutes).

[2] = rat, in vivo, iv, 10 mg/kg
Method: The delivery vehicle for drug administration was isotonic saline. Rat blood was collected from the catheter into K2-EDTA tubes […] at time points of 1, minute, 5 minutes, 15 minutes, 1 hour, 4 hours, 8 hours and 24 hours. Plasma was isolated by centrifugation at 1000 RPM for 5 minutes, and 150 uL of extraction solution (ice cold methanol/100 ng/mL daunorubicin internal standard) was added to 50 uL of each plasma sample. Samples were then vortexed for 10 minutes, centrifuged at 13,000 RPM for 10 minutes, and 150 uL of the supernatant is transferred to HPLC vials for analysis.
as §1

[3] = system: SKOV-3 cells; test: Cytotoxicity of daunorubicin micelles compared to free daunorubicin, 72 hours, Cell-Titer Glo; format: cell-based; conditions: Homo sapiens, SK-OV-3, 72 h
Method: (§2) All cell lines were obtained from ATCC (Manassas, Va.). Media and supplements were obtained from Cell Gro (Manassas, Va.). HT-1080 cells were maintained in Eagle's Minimum Essential Medium supplemented with 10% FBS, 2 mM L-Glutamine, 1 mM sodium pyruvate, and 100 units/mL of penicillin and streptomycin. […] Cells were treated in triplicate. […] It should be noted that the IC50 values of the daunorubicin micelles are very similar to free daunorubicin.

[4] = system: MG-63 cells; test: as above; format: cell-based; conditions: Homo sapiens, MG-63, 72 h
Method: as §2

[5] = system: 786-0 cells; test: as above; format: cell-based; conditions: Homo sapiens, 786-0, 72 h
Method: as §2

[6] = system: HT-1080 cells; test: as above; format: cell-based; conditions: Homo sapiens, HT-1080, 72 h
Method: as §2

[7] = Rat pharmacokinetics of daunorubicin micelles compared to free daunorubicin (Example 54); format: in vivo, Fisher rats; conditions: plasma
Method: The delivery vehicle for drug administration was isotonic saline.
This study was repeated, and the micelles were injected in the same rats seven days after the first injection. The pharmacokinetic results are shown in the table below, and graphed in FIG. 22.

| SMILES | AUC [1] [ng·h/mL] | Cmax [1] [ng/mL] | T½ [1] [h] | AUC [2] [ng·h/mL] | Cmax [2] [ng/mL] | IC50 [3] [nM] | IC50 [4] [nM] | IC50 [5] [nM] | IC50 [6] [nM] | Cmax ([7]; Fisher rats, 10 mg/kg fast IV bolus, Day 0 (first injection)) [ng/mL] | AUC ([7]; Fisher, rat, intravenous, 10 mg/kg, repeat experiment, same rats seven days after the first injection) [ng·h/mL] | Cmax ([7]; Fisher, rat, intravenous, 10 mg/kg, repeat experiment, same rats seven days after the first injection, read-out: Cmax) [ng/mL] |
| --- | --- | --- | --- | --- | --- | --- | --- | --- | --- | --- | --- | --- |
| COc1cccc2c1C(=O)c1c(O)c3c(c(O)c1C2=O)C[C@@](O)(C(=O)CO)C[C@@H]3O[C@H]1C[C@H](N)[C@H](O)[C@H](C)O1 [Free Dox, doxorubicin] | 200 | 210 | 5.4 | 2610 | 9760 |  |  |  |  |  |  |  |
| COc1cccc2c1C(=O)c1c(O)c3c(c(O)c1C2=O)C[C@@](O)(C(C)=O)C[C@@H]3O[C@H]1C[C@H](N)[C@H](O)[C@H](C)O1 [Daunorubicin, daunorubicin] |  |  |  |  |  | 200 ± 12 | 231 ± 11 | 231 ± 11 | 546 ± 57 | 3290 | 3540 | 10600 |
